Assay results: ChEMBL document CHEMBL1201862, “PubChem BioAssay data set” (2004)
Structures can show the parent of a compound that is named as a salt. Each block holds one compound with its values, some of them ahead of it. The source made the active and inactive calls.

Legend:
[1] = Glucagon-like peptide 1 release potency, NCI-H716 cell line, dose-response, half-maximal inhibitory concentration (AID 1117344); assay type: functional, cell-based
[2] = half-maximal inhibitory concentration for glucagon-like peptide-1 release, STC-1 cell line, dose-response (AID 1117345); assay type: functional, cell-based
[3] = Counterscreen for activators of the function of SWI/SNF related, matrix associated, actin dependent regulator of chromatin, subfamily a, member 2 (SMARCA2, BRM): Luminescence-based cell-based high throughput dose response assay to identify non-selective compounds using the VP16 reporter assay.; assay type: functional
[4] = target: T1, DNA repair and recombination protein RAD54-like (Homo sapiens, UniProt Q92698); assay: inhibitors of human RAD54 branch migration, confirmation, biochemical, fluorescence, cherry-picked samples, dose series (AID 651657); assay type: functional
T1 sequence (Q92698 whole entry): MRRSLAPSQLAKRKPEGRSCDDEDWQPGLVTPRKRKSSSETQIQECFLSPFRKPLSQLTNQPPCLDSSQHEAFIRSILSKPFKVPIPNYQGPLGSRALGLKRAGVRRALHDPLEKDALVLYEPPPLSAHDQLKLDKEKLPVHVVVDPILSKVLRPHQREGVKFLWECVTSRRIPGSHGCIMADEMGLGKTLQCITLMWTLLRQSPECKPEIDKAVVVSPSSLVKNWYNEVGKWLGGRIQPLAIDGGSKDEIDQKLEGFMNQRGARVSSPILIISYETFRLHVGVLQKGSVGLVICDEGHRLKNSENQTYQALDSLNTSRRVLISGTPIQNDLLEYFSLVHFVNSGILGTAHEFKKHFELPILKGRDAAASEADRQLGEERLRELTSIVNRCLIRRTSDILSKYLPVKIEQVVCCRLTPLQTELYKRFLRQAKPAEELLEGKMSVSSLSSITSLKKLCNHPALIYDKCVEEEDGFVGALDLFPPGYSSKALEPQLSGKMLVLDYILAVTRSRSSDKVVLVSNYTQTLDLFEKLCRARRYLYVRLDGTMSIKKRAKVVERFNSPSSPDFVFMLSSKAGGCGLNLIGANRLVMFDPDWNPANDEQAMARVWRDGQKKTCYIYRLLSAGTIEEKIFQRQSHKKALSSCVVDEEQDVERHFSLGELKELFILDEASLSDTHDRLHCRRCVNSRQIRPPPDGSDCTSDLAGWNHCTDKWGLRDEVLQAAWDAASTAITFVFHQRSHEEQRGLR

[5] = target: T2, Low molecular weight phosphotyrosine protein phosphatase (Homo sapiens, UniProt P24666); assay type: functional; conditions: read-out: IC50_Mean
T2 sequence (P24666 whole entry): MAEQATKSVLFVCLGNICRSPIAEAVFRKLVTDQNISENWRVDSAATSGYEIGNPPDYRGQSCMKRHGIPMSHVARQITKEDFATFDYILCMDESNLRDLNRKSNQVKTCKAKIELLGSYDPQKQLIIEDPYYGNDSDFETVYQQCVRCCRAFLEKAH

[6] = target: T2, Low molecular weight phosphotyrosine protein phosphatase; assay type: functional; conditions: read-out: IC50_Mean; remark: listed apart in the source
[7] = DNA binding of candidate compounds, dose response, artefact control for RAD54 inhibitor project, biochemical, fluorescence polarization, cherry-pick (AID 651673); assay type: functional
[8] = target: T2, Low molecular weight phosphotyrosine protein phosphatase; assay: LMPTP phosphatase inhibitors, dose response, biochemical, OMFP substrate, fluorescence intensity, set 2 (AID 743307); assay type: functional
[9] = target: T2, Low molecular weight phosphotyrosine protein phosphatase; assay: LMPTP phosphatase inhibitors, colorimetric pNPP readout, dose response, orthogonal assay, biochemical, absorbance, pNPP substrate, LMPTP-A isoform, set 2 (AID 743308); assay type: functional
[10] = target: SWI/SNF-related matrix-associated actin-dependent regulator of chromatin subfamily A member 2 (Homo sapiens, UniProt P51531); assay: Luminescence-based cell-based high throughput dose response assay to identify activators of the function of SWI/SNF related, matrix associated, actin dependent regulator of chromatin, subfamily a, member 2 (SMARCA2, BRM).; assay type: functional
[11] = target: T3, DNA repair protein RAD52 homolog (Homo sapiens, UniProt P43351); assay type: functional, biochemical
T3 sequence (P43351 whole entry): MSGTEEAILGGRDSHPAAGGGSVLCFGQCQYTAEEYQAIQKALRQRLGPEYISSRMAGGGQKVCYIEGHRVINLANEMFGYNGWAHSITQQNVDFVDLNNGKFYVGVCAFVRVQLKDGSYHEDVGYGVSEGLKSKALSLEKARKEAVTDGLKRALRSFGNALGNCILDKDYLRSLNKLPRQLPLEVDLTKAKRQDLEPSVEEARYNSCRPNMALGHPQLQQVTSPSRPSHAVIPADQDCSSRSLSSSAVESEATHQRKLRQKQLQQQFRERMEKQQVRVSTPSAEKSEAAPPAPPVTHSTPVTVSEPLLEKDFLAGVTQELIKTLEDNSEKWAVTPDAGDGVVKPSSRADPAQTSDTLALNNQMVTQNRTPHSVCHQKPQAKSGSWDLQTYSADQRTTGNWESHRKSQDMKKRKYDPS

[12] = cytotoxicity toward HCT116 cells – cell-based, CellTiter-Glo luminescence, IC50, dose response (AID 1117332); assay type: functional; conditions: HCT-116
[13] = HCT116 cell viability decrease, GSK3B pretreatment – CellTiter-Glo, IC50, dose response (AID 1117339); assay type: functional; conditions: HCT-116
[14] = cytotoxicity toward Colo320 cells – cell-based, CellTiter-Glo luminescence, IC50, dose response (AID 1117334); assay type: functional; conditions: COLO 320
[15] = RKO cell viability reduction, dose response, CellTiter-Glo luminescence (AID 1117322); assay type: functional
[16] = cytotoxicity toward HT-29 cells – cell-based, CellTiter-Glo luminescence, IC50, dose response (AID 1117330); assay type: functional
[17] = CellTiter-Glo luminescent dose response of DLD-1 viability loss (AID 1117352); assay type: functional
[18] = HeLa 4N DNA content increase, dose response, cell-based, IC50 (AID 1117351); assay type: functional
[19] = Concentration-dependent survival of SW480 colon cancer line, luminescence detection with CellTiter-Glo, half-maximal inhibitory concentration (AID 1117338); assay type: functional
[20] = HeLa 2N DNA content increase, dose response, cell-based, IC50 (AID 1117349); assay type: functional
[21] = SNU-C1 cell viability reduction, dose response, CellTiter-Glo luminescence (AID 1117323); assay type: functional, cell-based
cells = assay type: functional, cell-based; conditions: INS-1E
[22] = Dose-response inhibition of insulin secretion in a rat insulinoma line at 5 mM glucose (AID 1117331); assay type: functional, cell-based; conditions: INS-1E
Paired box protein Pax-8 = Paired box protein Pax-8 (Homo sapiens, UniProt Q06710); assay: inhibitors of PAX8-driven TPO luciferase reporter, dose response, RMG-I cells, cherry-pick (AID 687027); assay type: functional, cell-based;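 note: luciferase reporter driven by Pax8 target thyroperoxidase promoter measured by SteadyGlo luminescence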
[23] = IGROV1 ovarian cancer cell cytotoxicity, dose response, PAX8 inhibitor project, plate reader, dry powder samples (AID 743043); assay type: functional, cell-based; conditions: IGROV-1
[24] = P. falciparum Dd2 growth inhibitors, dose response, SYBR Green, dry powder samples, set 9 (AID 1159568); assay type: functional, cell-based
[25] = target: Metabotropic glutamate receptor 7 (Homo sapiens, UniProt Q14831); assay: mGlu7 positive allosteric modulators, dose response, cell-based, calcium mobilization, Galpha15 (AID 743384); assay type: functional
Chain of Metabotropic glutamate receptor 7 (Q14831 whole entry): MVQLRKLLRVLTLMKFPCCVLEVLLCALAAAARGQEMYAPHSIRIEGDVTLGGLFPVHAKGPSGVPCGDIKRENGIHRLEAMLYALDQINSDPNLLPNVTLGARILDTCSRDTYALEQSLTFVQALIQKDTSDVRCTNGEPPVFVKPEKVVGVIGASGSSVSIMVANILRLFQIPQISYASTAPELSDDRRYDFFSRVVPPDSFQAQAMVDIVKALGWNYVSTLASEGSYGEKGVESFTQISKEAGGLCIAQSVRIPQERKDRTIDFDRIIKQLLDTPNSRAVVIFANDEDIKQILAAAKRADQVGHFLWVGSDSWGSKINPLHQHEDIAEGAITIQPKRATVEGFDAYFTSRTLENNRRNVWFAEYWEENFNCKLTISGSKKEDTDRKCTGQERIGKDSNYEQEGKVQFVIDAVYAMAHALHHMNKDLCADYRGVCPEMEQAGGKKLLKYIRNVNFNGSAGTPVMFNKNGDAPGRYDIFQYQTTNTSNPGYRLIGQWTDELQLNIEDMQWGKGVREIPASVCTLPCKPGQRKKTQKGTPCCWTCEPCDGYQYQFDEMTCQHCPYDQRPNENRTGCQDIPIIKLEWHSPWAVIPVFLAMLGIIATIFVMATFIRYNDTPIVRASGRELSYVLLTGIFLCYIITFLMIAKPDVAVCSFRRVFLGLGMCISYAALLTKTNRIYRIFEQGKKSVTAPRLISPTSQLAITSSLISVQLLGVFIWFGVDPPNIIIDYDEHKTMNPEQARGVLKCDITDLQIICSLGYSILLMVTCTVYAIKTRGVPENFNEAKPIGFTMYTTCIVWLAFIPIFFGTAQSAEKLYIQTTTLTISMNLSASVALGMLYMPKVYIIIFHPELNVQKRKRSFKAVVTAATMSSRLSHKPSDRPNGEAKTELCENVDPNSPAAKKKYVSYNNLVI

Chain of Paired box protein Pax-8 (Q06710 whole entry): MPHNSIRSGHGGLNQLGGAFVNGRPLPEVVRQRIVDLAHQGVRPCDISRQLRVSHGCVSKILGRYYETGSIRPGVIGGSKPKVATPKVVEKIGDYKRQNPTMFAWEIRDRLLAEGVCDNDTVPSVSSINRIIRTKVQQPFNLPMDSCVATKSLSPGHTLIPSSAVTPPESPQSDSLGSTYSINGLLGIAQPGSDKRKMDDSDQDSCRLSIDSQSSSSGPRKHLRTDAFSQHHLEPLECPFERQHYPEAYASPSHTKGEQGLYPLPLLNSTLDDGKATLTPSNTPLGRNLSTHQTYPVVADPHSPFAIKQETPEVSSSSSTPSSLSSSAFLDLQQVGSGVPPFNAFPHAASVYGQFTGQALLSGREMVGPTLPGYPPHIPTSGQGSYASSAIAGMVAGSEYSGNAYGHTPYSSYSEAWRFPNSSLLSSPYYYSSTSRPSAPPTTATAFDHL
Chain of SWI/SNF-related matrix-associated actin-dependent regulator of chromatin subfamily A member 2 (P51531 whole entry): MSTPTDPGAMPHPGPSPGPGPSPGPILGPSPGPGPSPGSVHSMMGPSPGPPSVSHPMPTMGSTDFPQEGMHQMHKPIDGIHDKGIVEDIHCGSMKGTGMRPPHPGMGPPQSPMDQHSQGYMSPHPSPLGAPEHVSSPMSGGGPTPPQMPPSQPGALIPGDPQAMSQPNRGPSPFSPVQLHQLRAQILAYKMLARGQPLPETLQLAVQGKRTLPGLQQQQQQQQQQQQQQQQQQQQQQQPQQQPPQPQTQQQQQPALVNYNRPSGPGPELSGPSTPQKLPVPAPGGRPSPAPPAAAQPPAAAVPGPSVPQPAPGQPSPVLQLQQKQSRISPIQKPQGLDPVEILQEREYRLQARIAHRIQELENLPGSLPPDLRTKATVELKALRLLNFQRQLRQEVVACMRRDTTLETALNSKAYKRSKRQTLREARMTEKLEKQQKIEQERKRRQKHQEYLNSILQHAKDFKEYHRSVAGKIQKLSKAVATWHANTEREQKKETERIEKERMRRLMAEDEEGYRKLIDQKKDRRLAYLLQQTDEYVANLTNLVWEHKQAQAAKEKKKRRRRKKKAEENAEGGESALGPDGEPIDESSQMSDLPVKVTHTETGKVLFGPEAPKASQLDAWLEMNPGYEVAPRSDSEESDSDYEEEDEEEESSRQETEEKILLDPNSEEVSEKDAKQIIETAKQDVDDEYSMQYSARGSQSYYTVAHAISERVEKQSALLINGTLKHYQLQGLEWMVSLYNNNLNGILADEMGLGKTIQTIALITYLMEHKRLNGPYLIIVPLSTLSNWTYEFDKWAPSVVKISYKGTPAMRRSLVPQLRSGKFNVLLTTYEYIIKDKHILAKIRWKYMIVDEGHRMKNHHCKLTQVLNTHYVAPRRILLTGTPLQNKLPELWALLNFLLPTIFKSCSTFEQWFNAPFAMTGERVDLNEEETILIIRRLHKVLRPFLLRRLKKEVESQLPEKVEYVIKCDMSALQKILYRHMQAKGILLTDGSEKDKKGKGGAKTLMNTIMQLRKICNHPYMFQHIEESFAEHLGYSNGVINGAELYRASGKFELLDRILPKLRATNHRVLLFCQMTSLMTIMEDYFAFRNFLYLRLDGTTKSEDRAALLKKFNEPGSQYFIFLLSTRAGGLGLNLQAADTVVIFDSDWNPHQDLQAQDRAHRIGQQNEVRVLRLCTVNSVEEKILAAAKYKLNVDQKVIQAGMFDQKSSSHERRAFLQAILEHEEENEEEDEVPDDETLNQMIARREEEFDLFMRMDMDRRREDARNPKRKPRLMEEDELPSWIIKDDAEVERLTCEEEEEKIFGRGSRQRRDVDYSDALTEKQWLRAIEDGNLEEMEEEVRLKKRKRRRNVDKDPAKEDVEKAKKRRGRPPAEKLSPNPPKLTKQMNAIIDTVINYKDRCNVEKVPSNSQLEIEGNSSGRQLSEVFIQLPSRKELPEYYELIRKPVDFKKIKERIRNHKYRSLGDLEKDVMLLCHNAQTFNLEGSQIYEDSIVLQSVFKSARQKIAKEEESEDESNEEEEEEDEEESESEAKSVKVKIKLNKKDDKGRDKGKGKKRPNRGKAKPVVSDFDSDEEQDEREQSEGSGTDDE

SMILES: Cc1cc(OCCOCC[N+](C)(C)Cc2ccccc2)ccc1C(C)(C)CC(C)(C)C
- IC50 [1]: 12 µM (inactive)
- IC50 [2]: > 40 µM (inactive)

SMILES: c1ccc(-c2cc(NCCN3CCCCC3)c3ccccc3n2)cc1
- EC50 [3]: > 91.2 µM (inactive)
- AC50 [4]: 4.86 µM (active)
- IC50 [5]: 3.49 µM (active)
- IC50 [6]: 5.8 µM (active)
- AC50 [7]: 58.8 µM (active)
- IC50 [8]: 3.7 µM (active)
- IC50 [9]: 8.37 µM (active)
- EC50 [10]: 10.9 µM (inactive)
- AC50 [11]: < 3.63 µM (active)

SMILES: CCCCC(CC)CNC(=N)NC(=N)NCCCCCCNC(=N)NC(=N)NCC(CC)CCCC (configuration not stated) [ALEXIDINE DIHYDROCHLORIDE]
- IC50 [12]: 0.71 µM (active)
- IC50 [13]: 0.396 µM (active)
- IC50 [14]: 0.0041 µM (active)
- IC50 [15]: 0.223 µM (active)
- IC50 [16]: 0.0302 µM (active)
- IC50 [17]: 0.0197 µM (active)
- IC50 [18]: > 10 µM (inactive)
- IC50 [19]: 0.333 µM (active)
- IC50 [20]: > 10 µM (inactive)
- IC50 [21]: 0.0941 µM (active)

SMILES: CC(C)[C@H]1CC[C@H](C(=O)N[C@H](Cc2ccccc2)C(=O)O)CC1 [NATEGLINIDE]
- IC50 (cells): > 33.3 µM (inactive)
- IC50 [22]: 7.07 µM (inactive)

SMILES: C[C@@H]1CN([C@@H](C)CO)C(=O)Cc2cc(NC(=O)C3CCCCC3)ccc2O[C@H]1CN(C)Cc1ccc(Cl)c(Cl)c1
- AC50 (Paired box protein Pax-8): 5.39 µM (active)
- AC50 [23]: 28.6 µM (active)
- AC50 [24]: 2.76 µM (active)

- EC50 [25]: 10 µM (active)
SMILES: CC(=O)Nc1ccc(SCC(=O)c2cc(C)n(-c3nc(C)cs3)c2C)cc1
